Laboratory results from article PMC10822116 (Drug Design, Development and Therapy, 2024).

What was measured:
[1] = target: human recombinant BuChE (hBuChE) (Homo sapiens, UniProt P06276); test: BuChE inhibition, Ellman spectrophotometry; type: biochemical; settings: stronger than donepezil
PC12 cells = test: CCK-8 cytotoxicity in PC12 cells; type: cell-based; settings: 24 h
BV-2 cells = test: CCK-8 cytotoxicity in BV-2 cells; type: cell-based; settings: 24 h
Kunming mice = test: In vivo acute toxicity
[2] = system: mice with scopolamine-induced memory impairment; test: Step-down passive avoidance test, scopolamine-induced memory impairment; type: in vivo
eqBuChE = eqBuChE (Equus caballus, UniProt P81908); test: BuChE inhibition, Ellman spectrophotometry; type: biochemical, equine; settings: more potent than donepezil
[3] = 7d 5, 10, 20 mg/kg oral, scopolamine 3 mg/kg i.p., dose-dependent
[4] = high-dose 20 mg/kg oral vs donepezil 10 mg/kg
[5] = medium-dose 10 mg/kg oral vs donepezil 10 mg/kg

eqBuChE, sequence (P81908 whole entry): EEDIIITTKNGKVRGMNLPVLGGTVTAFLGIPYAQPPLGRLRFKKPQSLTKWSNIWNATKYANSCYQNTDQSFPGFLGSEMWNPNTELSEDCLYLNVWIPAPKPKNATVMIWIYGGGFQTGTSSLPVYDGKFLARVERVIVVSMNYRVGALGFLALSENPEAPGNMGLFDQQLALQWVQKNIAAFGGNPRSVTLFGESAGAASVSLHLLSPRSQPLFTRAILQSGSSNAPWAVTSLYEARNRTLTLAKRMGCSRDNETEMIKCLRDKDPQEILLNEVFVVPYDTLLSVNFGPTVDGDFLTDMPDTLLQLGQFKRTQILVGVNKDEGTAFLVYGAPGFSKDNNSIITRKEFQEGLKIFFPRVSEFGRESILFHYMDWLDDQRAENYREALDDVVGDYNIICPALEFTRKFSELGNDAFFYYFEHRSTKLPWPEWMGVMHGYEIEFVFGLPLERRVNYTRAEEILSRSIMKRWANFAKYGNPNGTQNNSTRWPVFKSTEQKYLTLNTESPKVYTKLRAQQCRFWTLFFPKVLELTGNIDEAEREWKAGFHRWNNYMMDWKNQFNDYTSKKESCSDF
human recombinant BuChE (hBuChE), sequence (P06276 29-602): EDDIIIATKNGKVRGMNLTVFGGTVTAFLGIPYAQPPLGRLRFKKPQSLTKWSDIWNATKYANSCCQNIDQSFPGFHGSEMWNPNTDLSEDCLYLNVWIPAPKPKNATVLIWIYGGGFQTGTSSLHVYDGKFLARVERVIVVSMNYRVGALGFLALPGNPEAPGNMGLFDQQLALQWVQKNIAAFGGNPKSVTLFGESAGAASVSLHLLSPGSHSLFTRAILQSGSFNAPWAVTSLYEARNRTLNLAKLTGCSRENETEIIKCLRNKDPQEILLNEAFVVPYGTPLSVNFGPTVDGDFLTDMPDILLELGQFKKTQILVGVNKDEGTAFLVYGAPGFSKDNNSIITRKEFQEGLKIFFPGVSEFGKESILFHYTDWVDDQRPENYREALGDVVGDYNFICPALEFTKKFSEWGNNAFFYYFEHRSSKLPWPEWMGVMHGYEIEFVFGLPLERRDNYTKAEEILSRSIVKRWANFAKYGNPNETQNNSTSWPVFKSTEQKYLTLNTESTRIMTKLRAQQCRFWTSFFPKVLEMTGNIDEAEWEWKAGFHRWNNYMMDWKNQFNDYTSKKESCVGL

Structure (SMILES): C#CCN(C)CCCCCCCOc1cccc(CN(C)c2c3c(nc4ccccc24)CCCC3)c1 [Compound 6f, N-methyl-N-(3-((7-(methyl(prop-2-yn-1-yl)amino)heptyl)oxy)benzyl)-1,2,3,4-tetrahydroacridin-9-amine]
- hBuChE potency relative to donepezil [1]: approximately 7 fold

Structure (SMILES): C#CCN(C)CCCCCCOCc1ccc(CN(C)c2c3c(nc4ccccc24)CCCC3)cc1 [Compound 7d, N-methyl-N-(4-(((6-(methyl(prop-2-yn-1-yl)amino)hexyl)oxy)methyl)benzyl)-1,2,3,4-tetrahydroacridin-9-amine]
- Effect on cell viability (PC12 cells; PC12, 0.325 to 2.5 μM): no significant effect
- Effect on cell viability (PC12 cells; PC12, above 2.5 μM): decrease in cell viability
- Cytotoxicity (BV-2 cells; BV-2, 10 μM): > 50%
- Effect on cell viability (BV-2 cells; BV-2, 0.325 to 2.5 μM): no significant effect
- Effect on cell viability (BV-2 cells; BV-2, above 2.5 μM): decrease in cell viability
- Death, abnormal behavior or dietary changes (Kunming mice; KM mice, oral 625, 1250 and 2500 mg/kg, monitored 4 h): No such effects were observed
- Average body weight change (Kunming mice; KM mice, single oral dose 625, 1250, 2500 mg/kg, 14 days, vs control group): comparable to that in the control group
- Tissue damage (HE staining of heart, liver, kidney, lung, brain) (Kunming mice; mice, 2500 mg/kg oral, day 14): no obvious signs of tissue damage
- Latency in step-down test [2, 3]: prolong the latency
- Number of errors in step-down test [2, 3]: reduce the number of errors
- Latency compared with donepezil [2, 4]: longer latency
- Number of errors compared with donepezil [2, 4]: fewer errors
- Number of errors compared to model group ([2]; low-dose 5 mg/kg oral, Kruskal–Wallis test, p = 0.2219): not statistically significant
- Latency compared with donepezil [2, 5]: similar
- Number of errors compared with donepezil [2, 5]: similar

Structure (SMILES): C#CCN(C)CCCCCCCOCc1ccc(CN(C)c2c3c(nc4ccccc24)CCCC3)cc1 [Compound 7e, N-methyl-N-(4-(((7-(methyl(prop-2-yn-1-yl)amino)heptyl)oxy)methyl)benzyl)-1,2,3,4-tetrahydroacridin-9-amine]
- eqBuChE potency relative to donepezil (eqBuChE): approximately 18 fold
